Source: patent US10004701B2, “Methods and compositions for treating infection” (UNIVERSITY OF ROCHESTER, priority 2012, dated 2018)
Counter-ions that a name gives are not always drawn. Like-named read-outs stand apart in the source and are kept apart here.

What was measured:
Assay in all cases: AK assay 384-well format, Prestwick library screening
E. faecium = format: cell-based, Enterococcus faecium; conditions: Enterococcus faecium, 3 h, 50 μM final drug concentration
[1] = test system: S. aureus strain USA300-0114; format: cell-based, Staphylococcus aureus; conditions: Staphylococcus aureus, USA300, 3 h, 50 μM final drug concentration
K. pneumoniae = format: cell-based, Klebsiella pneumoniae; conditions: Klebsiella pneumoniae, 3 h, 50 μM final drug concentration
[2] = test system: A. baumannii strain 98-37-09; format: cell-based, Acinetobacter baumannii; conditions: Acinetobacter baumannii, 983709, 3 h, 50 μM final drug concentration
P. aeruginosa = format: cell-based, Pseudomonas aeruginosa; conditions: Pseudomonas aeruginosa, 3 h, 50 μM final drug concentration
E. cloacae = format: cell-based, Enterobacter cloacae; conditions: Enterobacter cloacae, 3 h, 50 μM final drug concentration
E. coli = format: cell-based, Escherichia coli; conditions: Escherichia coli, 3 h, 50 μM final drug concentration
[3] = planktonic, cutoff for positive-scoring molecules 3-fold increase, read-out: AK-based Prestwick Library Screening Results, E. faecium (fold increase in extracellular AK activity)
[4] = planktonic, cutoff for positive-scoring molecules 3-fold increase, read-out: AK-based Prestwick Library Screening Results, S. aureus (fold increase in extracellular AK activity)
[5] = planktonic, cutoff for positive-scoring molecules 3-fold increase, read-out: AK-based Prestwick Library Screening Results, K. pneumoniae (fold increase in extracellular AK activity)
[6] = planktonic, cutoff for positive-scoring molecules 3-fold increase, read-out: AK-based Prestwick Library Screening Results, A. baumannii (fold increase in extracellular AK activity)
[7] = planktonic, cutoff for positive-scoring molecules 3-fold increase, read-out: AK-based Prestwick Library Screening Results, P. aeruginosa (fold increase in extracellular AK activity)
[8] = planktonic, cutoff for positive-scoring molecules 3-fold increase, read-out: AK-based Prestwick Library Screening Results, E. cloacae (fold increase in extracellular AK activity)
[9] = planktonic, cutoff for positive-scoring molecules 3-fold increase, read-out: AK-based Prestwick Library Screening Results, E. coli (fold increase in extracellular AK activity)

CC(=O)[C@H]1CC[C@H]2[C@@H]3C=CC4=CC(=O)CC[C@@]4(C)[C@@H]3CC[C@]12C [Dydrogesterone]
fold induction at 50 µM (E. faecium; [3]): 1
fold induction at 50 µM [1, 4]: 0.7
fold induction at 50 µM (K. pneumoniae; [5]): 0.8
fold induction at 50 µM [2, 6]: 0.8
fold induction at 50 µM (P. aeruginosa; [7]): 0.9
fold induction at 50 µM (E. cloacae; [8]): 1.2
fold induction at 50 µM (E. coli; [9]): 0.9

O=c1c2ccccc2[se]n1-c1ccccc1 [Ebselen]
fold induction at 50 µM (E. faecium; [3]): 0.9
fold induction at 50 µM [1, 4]: 0.5
fold induction at 50 µM (K. pneumoniae; [5]): 0.6
fold induction at 50 µM [2, 6]: 0.7
fold induction at 50 µM (P. aeruginosa; [7]): 0.6
fold induction at 50 µM (E. cloacae; [8]): 0.7
fold induction at 50 µM (E. coli; [9]): 0.6

Clc1ccc(COC(Cn2ccnc2)c2ccc(Cl)cc2Cl)cc1 (centres unmarked) [Econazole nitrate]
fold induction at 50 µM (E. faecium; planktonic E. faecium, 384-well, cutoff for positive-scoring molecules 3-fold increase, read-out: AK-based Prestwick Library Screening Results: E. faecium (increase in extracellular AK activity)): 1.5
fold induction at 50 µM ([1]; planktonic S. aureus, 384-well, cutoff for positive-scoring molecules 3-fold increase, read-out: AK-based Prestwick Library Screening Results: S. aureus (increase in extracellular AK activity)): 3.7
fold induction at 50 µM (K. pneumoniae; planktonic K. pneumoniae, 384-well, cutoff for positive-scoring molecules 3-fold increase, read-out: AK-based Prestwick Library Screening Results: K. pneumoniae (increase in extracellular AK activity)): 1.3
fold induction at 50 µM ([2]; planktonic A. baumannii, 384-well, cutoff for positive-scoring molecules 3-fold increase, read-out: AK-based Prestwick Library Screening Results: A. baumannii (increase in extracellular AK activity)): 6.7
fold induction at 50 µM (P. aeruginosa; planktonic P. aeruginosa, 384-well, cutoff for positive-scoring molecules 3-fold increase, read-out: AK-based Prestwick Library Screening Results: P. aeruginosa (increase in extracellular AK activity)): 1.3
fold induction at 50 µM (E. cloacae; planktonic E. cloacae, 384-well, cutoff for positive-scoring molecules 3-fold increase, read-out: AK-based Prestwick Library Screening Results: E. cloacae (increase in extracellular AK activity)): 1.3
fold induction at 50 µM (E. coli; planktonic E. coli, 384-well, cutoff for positive-scoring molecules 3-fold increase, read-out: AK-based Prestwick Library Screening Results: E. coli (increase in extracellular AK activity)): 1.3

CC[N+](C)(C)c1cccc(O)c1 [Edrophonium chloride]
fold induction at 50 µM (E. faecium; 384-well format, […], read-out: AK-based Prestwick Library Screening Results, E. faecium (increase in extracellular AK activity)): 0.8
fold induction at 50 µM ([1]; 384-well format, […], read-out: AK-based Prestwick Library Screening Results, S. aureus (increase in extracellular AK activity)): 0.4
fold induction at 50 µM (K. pneumoniae; 384-well format, […], read-out: AK-based Prestwick Library Screening Results, K. pneumoniae (increase in extracellular AK activity)): 0.5
fold induction at 50 µM ([2]; 384-well format, […], read-out: AK-based Prestwick Library Screening Results, A. baumannii (increase in extracellular AK activity)): 0.4
fold induction at 50 µM (P. aeruginosa; 384-well format, […], read-out: AK-based Prestwick Library Screening Results, P. aeruginosa (increase in extracellular AK activity)): 0.4
fold induction at 50 µM (E. cloacae; 384-well format, […], read-out: AK-based Prestwick Library Screening Results, E. cloacae (increase in extracellular AK activity)): 0.3
fold induction at 50 µM (E. coli; 384-well format, […], read-out: AK-based Prestwick Library Screening Results, E. coli (increase in extracellular AK activity)): 0.4

Cc1c2ccncc2c(C)c2c1[nH]c1ccccc12 [Ellipticine]
fold induction at 50 µM (E. faecium; planktonic, cutoff for positive 3-fold increase, read-out: AK-based Prestwick Library Screening Results, E. faecium (fold increase in extracellular AK activity)): 1.3
fold induction at 50 µM ([1]; planktonic, cutoff for positive 3-fold increase, read-out: AK-based Prestwick Library Screening Results, S. aureus (fold increase in extracellular AK activity)): 0.8
fold induction at 50 µM (K. pneumoniae; planktonic, cutoff for positive 3-fold increase, read-out: AK-based Prestwick Library Screening Results, K. pneumoniae (fold increase in extracellular AK activity)): 1
fold induction at 50 µM ([2]; planktonic, cutoff for positive 3-fold increase, read-out: AK-based Prestwick Library Screening Results, A. baumannii (fold increase in extracellular AK activity)): 4.1
fold induction at 50 µM (P. aeruginosa; planktonic, cutoff for positive 3-fold increase, read-out: AK-based Prestwick Library Screening Results, P. aeruginosa (fold increase in extracellular AK activity)): 1.2
fold induction at 50 µM (E. cloacae; planktonic, cutoff for positive 3-fold increase, read-out: AK-based Prestwick Library Screening Results, E. cloacae (fold increase in extracellular AK activity)): 1.8
fold induction at 50 µM (E. coli; planktonic, cutoff for positive 3-fold increase, read-out: AK-based Prestwick Library Screening Results, E. coli (fold increase in extracellular AK activity)): 1.3

CC[C@H]1CN2CCc3cc(OC)c(OC)cc3[C@@H]2C[C@@H]1C[C@H]1NCCc2cc(OC)c(OC)cc21 [Emetine dihydrochloride]
fold induction at 50 µM (E. faecium; planktonic E. faecium, cutoff for positive-scoring molecules 3-fold increase, read-out: AK-based Prestwick Library Screening Results, E. faecium (increase in extracellular AK activity)): 0.9
fold induction at 50 µM ([1]; planktonic S. aureus, cutoff for positive-scoring molecules 3-fold increase, read-out: AK-based Prestwick Library Screening Results, S. aureus (increase in extracellular AK activity)): 0.5
fold induction at 50 µM (K. pneumoniae; planktonic K. pneumoniae, cutoff for positive-scoring molecules 3-fold increase, read-out: AK-based Prestwick Library Screening Results, K. pneumoniae (increase in extracellular AK activity)): 0.6
fold induction at 50 µM ([2]; planktonic A. baumannii, cutoff for positive-scoring molecules 3-fold increase, read-out: AK-based Prestwick Library Screening Results, A. baumannii (increase in extracellular AK activity)): 0.5
fold induction at 50 µM (P. aeruginosa; planktonic P. aeruginosa, cutoff for positive-scoring molecules 3-fold increase, read-out: AK-based Prestwick Library Screening Results, P. aeruginosa (increase in extracellular AK activity)): 0.5
fold induction at 50 µM (E. cloacae; planktonic E. cloacae, cutoff for positive-scoring molecules 3-fold increase, read-out: AK-based Prestwick Library Screening Results, E. cloacae (increase in extracellular AK activity)): 0.5
fold induction at 50 µM (E. coli; planktonic E. coli, cutoff for positive-scoring molecules 3-fold increase, read-out: AK-based Prestwick Library Screening Results, E. coli (increase in extracellular AK activity)): 0.5

CCOC(=O)[C@H](CCc1ccccc1)N[C@@H](C)C(=O)N1CCC[C@H]1C(=O)O [Enalapril maleate]
fold induction at 50 µM (E. faecium; planktonic E. faecium, 384-well, […], read-out: AK-based Prestwick Library Screening Results: E. faecium (increase in extracellular AK activity)): 1.1
fold induction at 50 µM ([1]; planktonic S. aureus, 384-well, […], read-out: AK-based Prestwick Library Screening Results: S. aureus (increase in extracellular AK activity)): 1.3
fold induction at 50 µM (K. pneumoniae; planktonic K. pneumoniae, 384-well, […], read-out: AK-based Prestwick Library Screening Results: K. pneumoniae (increase in extracellular AK activity)): 1.2
fold induction at 50 µM ([2]; planktonic A. baumannii, 384-well, […], read-out: AK-based Prestwick Library Screening Results: A. baumannii (increase in extracellular AK activity)): 1.3
fold induction at 50 µM (P. aeruginosa; planktonic P. aeruginosa, 384-well, […], read-out: AK-based Prestwick Library Screening Results: P. aeruginosa (increase in extracellular AK activity)): 1.2
fold induction at 50 µM (E. cloacae; planktonic E. cloacae, 384-well, […], read-out: AK-based Prestwick Library Screening Results: E. cloacae (increase in extracellular AK activity)): 1.3
fold induction at 50 µM (E. coli; planktonic E. coli, 384-well, […], read-out: AK-based Prestwick Library Screening Results: E. coli (increase in extracellular AK activity)): 1.2

C=CCOC(Cn1ccnc1)c1ccc(Cl)cc1Cl (centres unmarked) [Enilconazole]
fold induction at 50 µM (E. faecium; cutoff for positive-scoring molecules 3-fold increase, read-out: AK-based Prestwick Library Screening Results, E. faecium (fold increase in extracellular AK activity)): 1.1
fold induction at 50 µM ([1]; cutoff for positive-scoring molecules 3-fold increase, read-out: AK-based Prestwick Library Screening Results, S. aureus (fold increase in extracellular AK activity)): 0.4
fold induction at 50 µM (K. pneumoniae; cutoff for positive-scoring molecules 3-fold increase, read-out: AK-based Prestwick Library Screening Results, K. pneumoniae (fold increase in extracellular AK activity)): 0.5
fold induction at 50 µM ([2]; cutoff for positive-scoring molecules 3-fold increase, read-out: AK-based Prestwick Library Screening Results, A. baumannii (fold increase in extracellular AK activity)): 0.4
fold induction at 50 µM (P. aeruginosa; cutoff for positive-scoring molecules 3-fold increase, read-out: AK-based Prestwick Library Screening Results, P. aeruginosa (fold increase in extracellular AK activity)): 0.4
fold induction at 50 µM (E. cloacae; cutoff for positive-scoring molecules 3-fold increase, read-out: AK-based Prestwick Library Screening Results, E. cloacae (fold increase in extracellular AK activity)): 0.4
fold induction at 50 µM (E. coli; cutoff for positive-scoring molecules 3-fold increase, read-out: AK-based Prestwick Library Screening Results, E. coli (fold increase in extracellular AK activity)): 0.5
